{"source": "patent US20190224222A1", "about": "“METHOD OF INHIBITING QUORUM SENSING USING D-GALACTOSE” (Seoul National University R&DB Foundation, priority 2014, published 2019)", "key": {"S. mutans (Sm) biofilm [1]": {"tested_on": "S. mutans (Sm) biofilm", "assay": "S. mutans biofilm formation, crystal violet staining", "assay_type": "cell-based, Streptococcus mutans (ATCC 25175)", "conditions": "D-gal 2 mM", "protocol": "2 mL (2×10^7/ml) of the culture broth of a representative cariogenic bacterium S. mutans (Sm) and 2 mL (2×10^7/ml) of the culture broth of one of normal oral flora, S. oxalis (SO) were added to a saliva-coated glass slip (round, 12 mm radius), respectively and cultured with 0 mM or 2 mM of D-galactose to form biofilms. The formed biofilms were stained with crystal violet in the same manner as in Examples 3-6 to test biofilm formation according to the presence of D-galactose. Further, the biofilms were stained with fluorescent materials using the live/dead-BacLight viability kit (Invitrogen, Grand Island, N.Y., USA), followed by analysis. For comparison, 2 μM of the furanone compound was used instead of D-galactose to perform the same test."}, "S. mutans (Sm) biofilm [2]": {"tested_on": "S. mutans (Sm) biofilm", "assay": "S. mutans biofilm formation, fluorescence staining (confocal)", "assay_type": "cell-based, Streptococcus mutans (ATCC 25175)", "conditions": "D-gal 200 mM vs furanone compound 20 μM", "protocol": "Further, the inhibitory effect of D-gal on Sm biofilm formation was examined by fluorescent staining. 2 ml (2×10^7/ml) of Sm culture broth was used, and 200 mM of D-gal and 20 μM of the furanone compound were used. Biofilms formed on the cover slip were stained with fluorescent materials using the live/dead-BacLight viability kit (Invitrogen, Grand Island, N.Y., USA) and observed using a confocal microscope (Carl Zeiss, LSM 700). […] Fluorescence intensities of the obtained individual fluorescence images were quantified using ZEN 2010 program of a confocal microscope, and shown in FIG. 16."}}}
{"smiles": "O=C[C@H](O)[C@@H](O)[C@@H](O)[C@H](O)CO", "note": "[D-gal, D-galactose]", "values": [{"measurement": "OD590 nm", "setting": "S. mutans (Sm) biofilm [1]; Sm on saliva-coated glass slip, Sm control 0.48", "value": 0.37}, {"measurement": "inhibitory effect on Sm biofilm formation, in words", "setting": "S. mutans (Sm) biofilm [1]; crystal violet, furanone compound 2 μM", "value": "significant inhibitory effect"}, {"measurement": "inhibitory effect on Sm biofilm formation, in words", "setting": "S. mutans (Sm) biofilm [2]", "value": "superior to that of the furanone compound"}]}
